# Data from a melting point compilation (Tetko et al.; mined from patent text by program, amines drawn as free bases though some values may be those of a salt).
row,melting point,SMILES
1,250 to 255 °C,O=C(CCNc1c(C(=O)O)[nH]c2cc(Cl)ccc12)c1ccccc1
2,151 to 152 °C,Nc1nc(/C(=N/OCc2nnn[nH]2)C(=O)O)cs1
3,> 200 °C,COc1ccc(S(=O)(=O)C2(C(=O)NO)CCN(C3CCCCCCC3)CC2)cc1
4,158 to 160 °C,CCC(NC(=O)OCc1ccccc1)C(=O)Nc1ccc(-n2nc(C(F)(F)F)cc2C(F)(F)F)cc1 (stereo not drawn)
5,252 to 254 °C,COc1ccc(-c2nc3cccnc3[nH]2)cc1NS(=O)(=O)c1cccs1
6,299 °C,COc1cc2ncnc(Nc3cccc(Br)c3)c2cc1O
7,62 to 64 °C,OCC(CO)Oc1ccc(Cl)cc1
8,189 °C,COc1ccc(CSCC(NC(=O)c2ccccc2)C(=O)NC(C)(C)c2ccccc2)cc1 (stereo not drawn)
9,70 °C,Clc1ccc2sc(Cl)nc2c1
10,> 300 °C,CC1(C)Oc2cc3nc(S)[nH]c3cc2O1
11,113 to 115 °C,CCC(O)(CC)CC(=NO)C1(c2ccc(Cl)cc2)CCC1
12,248 to 250 °C,Cc1ccc(N2CN(c3ccccc3)C3=NN=CC3=C2N)cc1
13,216 °C,O=C(O)CCCc1cc2nc(Cl)ccc2n1S(=O)(=O)c1ccc2c(c1)OC(F)(F)O2
14,166 °C,CC(=O)NCc1cncn1C1c2ccccc2CCC1(C)C (stereo not drawn)
15,256 to 265 °C,O=c1oc2cccc(O)c2c(O)c1-c1ccccc1
16,190 to 191 °C,Cc1[nH]cnc1CCNC(=NCCSCc1nc[nH]c1C)NC#N
17,104 to 106 °C,Cc1ccccc1-c1cc2ncccc2c(=O)n1C
18,154 to 156 °C,COc1ccc(-n2nc(CCC(=O)NO)cc2-c2ccc(Cl)cc2)cc1
19,96 °C,C#CCOc1ccc(NCc2ccc(Cl)nc2)c(C(=O)c2ccc(C(C)C)cc2)c1
20,209 to 213 °C,Cc1ccc(Nc2ccccc2C(=O)O)c([N+](=O)[O-])c1
21,122 to 124 °C,O=S(=O)(NCC1CCN(C[C@H]2COc3ccc(Cl)cc3O2)CC1)c1c(F)cccc1F
22,215 to 217 °C,O=c1[nH]c(=Cc2cccs2)c(=O)[nH]c1=Cc1ccc(OCc2ccccc2)cn1
23,101 to 104 °C,CCCc1c(OCCCOCCCOc2ccc3ccc(OCC(=O)O)cc3c2C(C)=O)ccc(C(C)=O)c1O

row,melting point,SMILES
1,70 to 72 °C,O=C(CC(=O)C1CC1)c1ccc(S(F)(F)(F)(F)F)cc1
2,163 to 166 °C,COc1cc(OC)nc(NC(=O)NS(=O)(=O)c2ccccc2CCBr)n1
3,190 to 191 °C,COc1ccc(Cl)c(Oc2c(NS(=O)(=O)c3ccc(C(C)C)cn3)ncnc2OCCOC(=O)Nc2ccccn2)c1
4,228 to 230 °C,Cc1ccc2ncc(Oc3c(Cl)cc(NS(=O)(=O)c4cc(C)c(Cl)cc4Cl)cc3Cl)cc2c1
5,160 to 162 °C,O=C(O)c1ccccc1C(=O)NCCCn1ccnc1
6,174 to 176 °C,Cc1cc(N)ccc1-c1ccc(-c2ccc(N)cc2C)o1
7,114 to 116 °C,CCOC(=O)C(=O)c1cn(CC)c2cc(-c3ccc(OC(F)(F)F)cc3)ccc12
8,122 to 123 °C,CCCCn1ccc(-c2ccc(C(=O)N3Cc4cccn4Cc4ccccc43)cc2)n1
9,123 to 126 °C,CCOc1cc2c(cc1OCC)[C@@H]1CCCC[C@@H]1N=C2c1ccc(Cl)nc1 (racemic)
10,139 to 140 °C,Cc1oc(-c2ccco2)nc1COc1ccc(COc2nn(Cc3ccccc3)cc2C(N)=O)cc1
11,226 °C,CC(=O)N1CCc2cc(S(=O)(=O)n3c(CCCC(=O)O)cc4nc(Cl)ccc43)ccc21
12,125 to 127 °C,COc1cc2cc(C(=O)OC(C)(C)C)c(N)cc2cc1OCCN1CCOCC1
13,163 to 164 °C,CCCCNC(=O)Nc1ccccc1NC(=O)NCCCC
14,257 to 259 °C,CC1(O)CCN(C(=O)c2cc(-c3cnc4[nH]cc(C(=O)C5(C)CCCCC5)c4n3)cs2)CC1
15,68 to 71 °C,CC(C)(C)NC(=O)[C@@H]1CSCN1
16,68 to 77 °C,O=C(COC1Cc2cccc(O)c2CC1OCC(=O)N1CCOCC1)N1CCOCC1 (stereo not drawn)
17,267 °C,NS(=O)(=O)c1cccc(-c2cccc(-c3nc(-c4ccc(C(F)(F)F)cc4)cc(C(F)(F)F)n3)c2)c1
18,198 to 201 °C,O=S(Cc1ccc(Cl)c(Cl)c1)c1nc2cnccc2[nH]1 (stereo not drawn)
19,140 to 142 °C,N#CC1=Nc2nc(C3CCCC3)[nH]c2C2=N[C@H](Cc3ccccc3)CN12
20,170 °C,N#Cc1cc(C(F)(F)F)[nH]c1-c1ccsc1Br
21,142 to 144 °C,Nc1nc2ccccc2n1-c1cccc(-c2cccs2)c1
22,63 °C,OC[C@@H](O)CNCc1ccccc1
23,163 to 165 °C,O=C(O)C1CCCC(C(=O)O)C1 (stereo not drawn)

row,melting point,SMILES
1,167 to 169 °C,CC(=O)c1cc(=O)n(CCC(C(=O)NO)N(C)S(=O)(=O)c2ccc(Oc3ccccc3)cc2)c(=O)[nH]1 (stereo not drawn)
2,142 to 144 °C,CC(=O)N1CCc2cc(S(=O)(=O)n3c(COC(C)(C)C(=O)O)cc4cc(Cl)ccc43)ccc21
3,85 to 86 °C,COC(=O)c1ccc([N+](=O)[O-])c([N+](=O)[O-])c1
4,219 to 221 °C,O=C(O)COc1cc(Br)c2oc3ccccc3c(=O)c2c1
5,98 to 99 °C,COC(=O)Nc1cccc(OC(=O)N(CCC#N)c2ccccc2)c1
6,257 to 258 °C,CC1(CCN2C(=O)SC(=Cc3ccc(C(F)(F)F)cc3)C2=O)Cn2cc([N+](=O)[O-])nc2O1 (stereo not drawn)
7,40 to 41 °C,CC(=O)SCc1ccc(I)cc1
8,175 °C,CCCc1cc2c(NC(=S)N3Cc4ccccc4CC3CCO)cccc2cn1 (racemic)
9,188 °C,COc1cc2c(c3c1c(=O)c1cc4ccccc4cc1n3C)C=CC(C)(C)O2
10,196 °C,Cc1sc2cc(C3=NCC4(CCNCC4)S3)[nH]c2c1N(C)S(=O)(=O)c1cccs1
11,186 to 187 °C,CC(Nc1cc(Br)ccc1OCc1ccccc1)c1ccc(C(=O)O)cc1 (stereo not drawn)
12,> 230 °C,O=C1NCc2cnc(Nc3ccc(N4CCC(CCCO)CC4)cc3)nc2N1C1CCCC1
13,165 to 166 °C,N=C(NS(=O)(=O)c1ccc(Cl)cc1)C1CN(c2ccc(Cl)cc2)C(c2ccc(Cl)cc2Cl)=N1 (stereo not drawn)
14,113 to 116 °C,COc1ccc(-c2ccc3c(C(=O)N(C)C)cccc3c2)cc1
15,76 to 78 °C,FC(F)(F)Sc1ccc(C=Cc2nc(CNc3ccc(CCCCn4ccnn4)cc3)co2)cc1
16,146 to 148 °C,COc1ccc(CCc2nc(C(F)(F)F)c[nH]2)cc1
17,143 to 146 °C,CC[C@H](COC)n1cc(Cl)nc(N2CCc3cc(Cl)cc(Cl)c32)c1=O
18,105 to 106 °C,CC(C)C[C@@H](C(=O)OC(C)(C)C)N1C(=O)NC(C(F)(F)F)(C(F)(F)F)C1=O
19,78 to 80 °C,O=C1CC(c2ccccc2)(c2cccs2)Oc2ccccc21 (stereo not drawn)
20,166 °C,Cn1cc(-c2ccccc2)c(=O)c(-c2ccc(Cl)c(Cl)c2)c1
21,150 °C,CN(C)C(=O)Sc1ccc(C(=O)c2cccc(C#N)c2)cc1
22,99 to 101 °C,O=C(c1c[nH]nc1-c1ccccc1)C(CCN1CCC(O)(c2ccccc2)CC1)c1ccc(Cl)c(Cl)c1 (stereo not drawn)
23,196 to 197 °C,CCOC(=O)c1[nH]c2ccc(Cl)cc2c1Cc1ccccc1

row,melting point,SMILES
1,77 to 78 °C,CC(=O)N1CCC(CCCC(=O)c2ccc(F)cc2)CC1
2,93 to 94 °C,Cc1ccc(-c2nc(CCl)co2)o1
3,210 to 211 °C,CCc1c2c(nn1CC)c(N)nc1cc(OC)ccc12
4,177 °C,CC1Cc2cc(F)ccc2C1=Cc1ccc(S(C)(=O)=O)cc1 (stereo not drawn)
5,249 to 251 °C,Cn1cc(S(C)=O)c(=O)c2sc(-c3cccc(Cl)c3)cc21 (stereo not drawn)
6,228 to 229 °C,Cn1ncc2c1-c1c(S(C)(=O)=O)sc(S(N)(=O)=O)c1CC2
7,120 to 140 °C,CN(Cc1cc[nH]n1)C1CCCN(C(=O)c2ccc(Nc3nccc(Nc4ccc(F)cc4)n3)cc2)C1 (stereo not drawn)
8,272 to 273 °C,C[C@@H](n1cnc2cc(-c3ccc([N+](=O)[O-])cc3)sc2c1=O)[C@](O)(Cn1cncn1)c1ccc(F)cc1F
9,183 to 185 °C,CC(C)(C)Nc1c(Nc2ccc3cn[nH]c3c2)c(=O)c1=O
10,230 to 235 °C,COc1ccc2c(=O)[nH]nc(-c3ccccc3)c2c1
11,231 to 233 °C,CC1(COc2ccc(N3CCN(c4ccc(C(F)(F)F)cc4)CC3)cc2)Cn2cc([N+](=O)[O-])nc2O1 (stereo not drawn)
12,72 °C,COc1ccc(C(=O)CC(=O)C(F)(F)C(F)(F)F)cc1OC
13,140 °C,CN1CN(C(=O)c2c(F)cccc2F)C(=O)N(c2ccc(Cl)cc2)C1
14,213 to 215 °C,COC(=O)N1CCC(Nc2ncc3ncnc(Nc4ccc(F)c(Cl)c4)c3n2)CC1
15,91 to 92 °C,O=C(CCCBr)N1CC(c2ccc(Cl)cc2)Sc2ccccc21 (stereo not drawn)
16,148 to 149 °C,[N-]=[N+]=NC1(O)CC(n2cc(Br)c(=O)[nH]c2=O)OC1CO (stereo not drawn)
17,211 to 212 °C,COc1cccc(-c2nc(C)nn2-c2ccc(S(N)(=O)=O)cc2)c1
18,197 to 200 °C,O=C(N[C@H]1CC[C@H](O)CC1)c1cc(F)cnc1Cl
19,133 to 134 °C,O=[N+]([O-])c1ccc(OC(c2ccc(F)cc2)(c2ccc(F)cc2)c2nccs2)cc1C(F)(F)F
20,180 °C,CNC(=O)N1CCc2[nH]cnc2C1c1ccccc1 (stereo not drawn)

row,SMILES,melting point
1,O=[N+]([O-])c1cnc(N2CCN3CCC2CC3)nc1,135 to 139 °C
2,CC1CCc2c(c3c(O)cc(C(C)CCCc4ccc(F)cc4)cc3oc2=O)C1 (stereo not drawn),127 to 129 °C
3,CN1C2C=C(c3ccc(Cl)c(Cl)c3)CC1CC2 (stereo not drawn),44 to 52 °C
4,CC(C)NCC(O)c1cc(Cl)c(N)c(C(F)(F)F)c1 (stereo not drawn),104 to 106 °C
5,CC(c1ccc(F)cc1)n1c(NC2CCN(CCc3ccccc3)CC2)nc2ccccc21 (stereo not drawn),162 °C
6,COC(=O)[C@@]12CN(Cc3ccccc3)C[C@@H]1[C@@](O)(c1ccc(C)cc1)CC[C@H]2c1ccccc1 (racemic),164 °C
7,CN1Cc2c(-c3nc(CN(CC4CC4)CC4CC4)no3)ncn2-c2ccccc2C1=O,170 to 174 °C
8,CC1Cc2ccc(Br)cc2C(c2ccc([N+](=O)[O-])cc2)=NN1C(N)=O (stereo not drawn),193 to 203 °C
9,CC1=C2CCC3C(CCC4(C)C3CCC4(C)O)C2(C)CCC1=O (stereo not drawn),141 to 144 °C
